Each structure is given as a SMILES string. Like-named read-outs stand apart in the source and are kept apart here.

In data set [1] the target is T1, BSA (Bos taurus, UniProt P02769).
T1 construct: gene ALB
The arrangement: Intact protein LC/MS covalent labelling, fragments in pools of five, 200 uM each, 4 °C. The settings on record: 24 h, 4 °C, pool of five; 200 µM; covalent.

For data set [2], the target named is T2, OTUB2 (OTUB2A) (Homo sapiens, UniProt Q96DC9).
T2 construct: full length residues 1-234, E. coli BL21(DE3)-R3, His tag removed by TEV, construct 27312 Da
T2 sequence (Q96DC9 1-234): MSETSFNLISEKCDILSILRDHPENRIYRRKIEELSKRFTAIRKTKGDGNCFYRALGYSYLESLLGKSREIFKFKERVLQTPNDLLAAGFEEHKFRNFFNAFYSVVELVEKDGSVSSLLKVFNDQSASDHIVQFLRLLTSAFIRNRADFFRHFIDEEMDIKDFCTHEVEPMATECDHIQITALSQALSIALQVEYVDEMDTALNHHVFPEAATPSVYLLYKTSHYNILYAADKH
On the set-up: Intact protein LC/MS covalent labelling, fragments in pools of five, 200 uM each, 4 °C. The following applies: 24 h, 4 °C, pool of five; 200 µM; covalent.

For data set [3], the target named is T3, NUDT7 (Homo sapiens, UniProt P0C024).
T3 construct: residues 14-235, E. coli, pNIC28-Bsa4, N-terminal His6 tag removed by TEV, construct 26672 Da
On the set-up: Intact protein LC/MS covalent labelling, fragments in pools of five, 200 uM each, 4 °C. The settings on record: 24 h, 4 °C, pool of five; 200 µM; covalent.

Data set [4] deals with T4, PCAF (Homo sapiens, UniProt Q92831).
T4 construct: gene KAT2B
On the set-up: Intact protein LC/MS covalent labelling, fragments in pools of five, 200 uM each, 4 °C. The following applies: 24 h, 4 °C, pool of five; 200 µM; covalent.

Data set [5] in a line: in vitro. The arrangement: species or system HB2, HEK293. The settings on record: human, ccd841 cells.
Data set [6] is described as follows: in vitro. On the set-up: species or system HB2, CCD841. The settings on record: human, hek293 cells.
A short description of data set [7]: in vitro. The arrangement: species or system CCD841, HEK293. The following applies: human, hb2 cells, read-out: HB-2 Cells Viability (%).

T4 sequence (Q92831 whole entry): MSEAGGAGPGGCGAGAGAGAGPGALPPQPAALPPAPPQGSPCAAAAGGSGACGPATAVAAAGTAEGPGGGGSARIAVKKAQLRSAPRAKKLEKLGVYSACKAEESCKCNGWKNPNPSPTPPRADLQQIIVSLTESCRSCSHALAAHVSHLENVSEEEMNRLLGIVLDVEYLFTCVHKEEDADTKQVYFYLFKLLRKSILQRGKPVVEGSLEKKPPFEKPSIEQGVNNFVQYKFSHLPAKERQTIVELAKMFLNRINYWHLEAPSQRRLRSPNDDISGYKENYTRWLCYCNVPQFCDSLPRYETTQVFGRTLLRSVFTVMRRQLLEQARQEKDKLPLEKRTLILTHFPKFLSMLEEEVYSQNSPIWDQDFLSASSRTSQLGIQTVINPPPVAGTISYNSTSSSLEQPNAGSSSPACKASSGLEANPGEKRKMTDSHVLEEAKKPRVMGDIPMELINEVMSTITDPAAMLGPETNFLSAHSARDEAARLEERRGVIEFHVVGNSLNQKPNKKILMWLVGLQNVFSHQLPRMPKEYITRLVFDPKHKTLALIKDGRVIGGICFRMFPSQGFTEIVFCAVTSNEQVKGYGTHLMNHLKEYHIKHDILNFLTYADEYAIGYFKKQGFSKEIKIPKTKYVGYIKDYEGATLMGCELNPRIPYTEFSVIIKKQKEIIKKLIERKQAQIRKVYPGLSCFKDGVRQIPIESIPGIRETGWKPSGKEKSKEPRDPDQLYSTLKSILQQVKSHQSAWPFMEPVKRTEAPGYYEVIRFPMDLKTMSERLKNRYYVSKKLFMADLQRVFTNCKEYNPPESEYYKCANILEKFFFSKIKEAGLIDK
T3 sequence (P0C024 14-235): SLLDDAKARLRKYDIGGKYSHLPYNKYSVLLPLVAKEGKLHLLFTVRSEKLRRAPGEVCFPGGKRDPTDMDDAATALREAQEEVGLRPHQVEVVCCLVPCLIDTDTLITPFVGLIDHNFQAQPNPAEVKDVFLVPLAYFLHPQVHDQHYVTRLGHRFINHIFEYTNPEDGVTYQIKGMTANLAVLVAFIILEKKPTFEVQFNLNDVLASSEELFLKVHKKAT
T1 sequence (P02769 whole entry): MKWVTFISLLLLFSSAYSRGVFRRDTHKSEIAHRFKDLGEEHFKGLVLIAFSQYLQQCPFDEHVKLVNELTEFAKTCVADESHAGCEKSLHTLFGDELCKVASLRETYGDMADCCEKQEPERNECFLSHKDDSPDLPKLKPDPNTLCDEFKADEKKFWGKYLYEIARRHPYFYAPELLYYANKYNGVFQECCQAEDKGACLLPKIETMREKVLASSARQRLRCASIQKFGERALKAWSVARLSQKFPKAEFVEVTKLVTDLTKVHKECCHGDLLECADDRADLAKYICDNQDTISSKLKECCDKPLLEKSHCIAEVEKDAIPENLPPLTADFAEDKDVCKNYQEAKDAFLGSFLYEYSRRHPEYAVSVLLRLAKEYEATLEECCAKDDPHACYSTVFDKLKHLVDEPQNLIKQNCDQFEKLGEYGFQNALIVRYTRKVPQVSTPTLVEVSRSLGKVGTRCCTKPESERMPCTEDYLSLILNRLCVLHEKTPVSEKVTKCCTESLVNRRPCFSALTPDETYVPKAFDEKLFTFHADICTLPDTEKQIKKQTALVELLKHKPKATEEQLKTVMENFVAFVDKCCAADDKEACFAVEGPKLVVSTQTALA

In data set [1], `O=C(CCl)Nc1cccc(F)c1` [PCM-0102364] showed a BSA of 0. Further, in data set [2], the OTUB2 worked out at 0. Moreover, the NUDT7 in data set [3] is given as 0.09. The PCAF in data set [4] is 0. The viability (in general, a read-out of living cells in per cent, often relative to untreated cells) at 48 h, 10 µM in data set [5] came out at 45.7%; in data set [6], 5.9%; in data set [7], 25%.

`COC(=O)c1sccc1NC(=O)CCl` [PCM-0102367] returned a BSA in data set [1] of 0. This molecule came in with an OTUB2 in data set [2] of 0. In data set [3], this molecule came in with an NUDT7 of 0.12. Besides, the PCAF in data set [4] was 0. The viability at 48 h, 10 µM in data set [5] came out at 85.5%; in data set [6] it was 54%; in data set [7], 75%.

Consider `CCc1ccccc1NC(=O)CCl` [PCM-0102369], for which the BSA in data set [1] came out at 0. Also, the OTUB2 in data set [2] was determined as 0. Also, the NUDT7 in data set [3] is recorded as 0. For the same molecule, in data set [4], the PCAF turned out to be 0. Moreover, the results for the viability at 48 h, 10 µM in data set [5], in data set [6] and in data set [7] were 76.1%, 56.7% and 78.3%, respectively.

As to `O=C(CCl)NC(=O)Nc1ccccc1F` [PCM-0102376], in data set [1], the BSA is 0. Further, the OTUB2 in data set [2] worked out at 0. Also, the NUDT7 in data set [3] came out at 0. The PCAF in data set [4] amounted to 0. The viability at 48 h, 10 µM in data set [5] was determined as 80.5%; in data set [6] it was 67.8%; in data set [7], 63.5%.

`O=C(CCl)N1CCCCCCC1` [PCM-0102377]: the BSA in data set [1] is on record as 0. The OTUB2 in data set [2] is on record as 0. Further, the NUDT7 in data set [3] amounted to 0. In data set [4], the PCAF amounted to 0. The viability at 48 h, 10 µM in data set [5] is 82.1%; in data set [6] it was 43.5%; in data set [7], 36.7%.

For `O=C(CCl)N1CCN(c2ncc(C(F)(F)F)cc2Cl)CC1` [PCM-0102378], in data set [1], the BSA is 0. Further, the OTUB2 in data set [2] came to 0.05. The molecule also showed an NUDT7 in data set [3] of 0.14. In data set [4], the PCAF stood at 0. Also, the values for the viability at 48 h, 10 µM in data set [5], in data set [6] and in data set [7] were 2.9%, 1.8% and 1.8%, respectively.

On to `Cc1ccc(S(=O)(=O)N2CCN(C(=O)CCl)CC2)cc1C` [PCM-0102379], for which the BSA in data set [1] amounted to 0. The molecule further had an OTUB2 in data set [2] of 0. Also, the NUDT7 in data set [3] is listed as 0.1. The molecule also came in with a PCAF in data set [4] of 0. Also, the viability at 48 h, 10 µM in data set [5] was 22.6%; in data set [6] it was 2.7%; in data set [7], 1.8%.

As for `O=C(CCl)N1N=C(c2ccco2)CC1c1ccco1` (stereo not drawn) [PCM-0102380], the BSA in data set [1] is given as 0. Further, in data set [2], the OTUB2 is reported as 0. Also, in data set [3], the NUDT7 is 0.54. For the same molecule, the PCAF in data set [4] is given as 0. For the same molecule, the viability at 48 h, 10 µM in data set [5] turned out to be 63.4%; in data set [6] it was 40.4%; in data set [7], 55.7%.

Molecule `N#CC(c1ccccc1)N1CCN(C(=O)CCl)CC1` (stereo not drawn) [PCM-0102381] registered a BSA in data set [1] of 0. Also, in data set [2], the OTUB2 is given as 0. In addition, the NUDT7 in data set [3] was 0.11. In data set [4], the PCAF is listed as 0. Further, the results for the viability at 48 h, 10 µM in data set [5], in data set [6] and in data set [7] were 66.2%, 31.9% and 46.7%, respectively.

Take `O=C(CCl)NNC(=O)C1COc2ccccc2O1` (stereo not drawn) [PCM-0102384]: the BSA in data set [1] is reported as 0. In data set [2], the OTUB2 amounted to 0.27. Moreover, the NUDT7 in data set [3] is recorded as 0. Besides, the PCAF in data set [4] turned out to be 0. For the same molecule, the values for the viability at 48 h, 10 µM in data set [5], in data set [6] and in data set [7] were 70.3%, 90.7% and 86.6%, respectively.

`C=CC(=O)Nc1ccc(F)c(F)c1` [PCM-0102385] registered a BSA in data set [1] of 0. The OTUB2 in data set [2] was determined as 0. Besides, the NUDT7 in data set [3] was 0. For the same molecule, in data set [4], the PCAF was 0. Besides, the viability at 48 h, 10 µM is 112% in data set [5], 66.1% in data set [6] and 104% in data set [7].

Turning to `Cl.O=C(CCl)N1CCN(Cc2ccccc2F)CC1` [PCM-0102387], in data set [1], the BSA was determined as 0. The molecule further displayed an OTUB2 in data set [2] of 0.32. This molecule also gave an NUDT7 in data set [3] of 0. The same molecule returned a PCAF in data set [4] of 0. In addition, the figures for the viability at 48 h, 10 µM in data set [5], in data set [6] and in data set [7] were 67.2%, 35.1% and 24%, respectively.

Consider `O=C(CCl)Nc1cc2[nH]c(=O)[nH]c2cc1Br` [PCM-0102388], for which the BSA in data set [1] came out at 0. Further, in data set [2], the OTUB2 is on record as 0.56. In data set [3], this molecule yielded an NUDT7 of 0. Besides, in data set [4], the PCAF is 0. In addition, the figures for the viability at 48 h, 10 µM in data set [5], in data set [6] and in data set [7] were 38.6%, 1.2% and 11.4%, respectively.

In turn, `O=C(CCl)NCC(=O)N1CCCC1` [PCM-0102391] came in with a BSA in data set [1] of 0. In addition, the OTUB2 in data set [2] came to 0. In data set [3], this molecule yielded an NUDT7 of 0. In data set [4], this molecule gave a PCAF of 0. Also, the viability at 48 h, 10 µM amounted to 101% in data set [5], 116% in data set [6] and 106% in data set [7].

The molecule `O=C(CCl)Nc1ccc([N+](=O)[O-])cc1Cl` [PCM-0102392] gave a BSA in data set [1] of 0. In addition, the OTUB2 in data set [2] stood at 0.21. In data set [3], this molecule showed an NUDT7 of 0.16. The molecule further showed a PCAF in data set [4] of 0. Also, the viability at 48 h, 10 µM was found to be 53.9% in data set [5], 43.8% in data set [6] and 43.5% in data set [7].

`O=C(CCl)N1CCCC1c1cccs1` (stereo not drawn) [PCM-0102393]: the BSA in data set [1] is reported as 0. The same molecule came in with an OTUB2 in data set [2] of 0. In data set [3], this molecule had an NUDT7 of 0.36. This molecule returned a PCAF in data set [4] of 0. The viability at 48 h, 10 µM in data set [5] came out at 39%; in data set [6], 2.5%; in data set [7], 7.5%.

In turn, `Cc1cc(C)cc(NC(=O)CCl)c1` [PCM-0102394] registered a BSA in data set [1] of 0. Further, in data set [2], the OTUB2 is 0.22. Besides, in data set [3], the NUDT7 is listed as 0. In data set [4], this molecule came in with a PCAF of 0. In addition, the viability at 48 h, 10 µM in data set [5] stood at 69.9%; in data set [6], 22.3%; in data set [7], 31.4%.

Take `N#Cc1ccccc1S(=O)(=O)N1CCN(C(=O)CCl)CC1` [PCM-0102395]: in data set [1], the BSA stood at 0. Besides, the OTUB2 in data set [2] worked out at 0. Moreover, the NUDT7 in data set [3] is on record as 0.28. Also, the PCAF in data set [4] is 0. For the same molecule, the viability at 48 h, 10 µM was 62.6% in data set [5], 9.7% in data set [6] and 11.2% in data set [7].

In turn, `O=C(CCl)Nc1cccc2ccccc12` [PCM-0102396] came in with a BSA in data set [1] of 0. In data set [2], this molecule returned an OTUB2 of 0.54. The molecule further came in with an NUDT7 in data set [3] of 0.12. Also, the PCAF in data set [4] is listed as 0. The viability at 48 h, 10 µM in data set [5] was determined as 55.8%; in data set [6], 2.4%; in data set [7], 16.3%.

Turning to `Cc1ccc(C)c(NC(=O)CCl)c1` [PCM-0102398], the BSA in data set [1] is on record as 0. The same molecule yielded an OTUB2 in data set [2] of 0. The NUDT7 in data set [3] is given as 0. The PCAF in data set [4] was 0. For the same molecule, the figures for the viability at 48 h, 10 µM in data set [5], in data set [6] and in data set [7] were 62.3%, 51.5% and 59.4%, respectively.

Take `Cc1ccc(CN(C)C(=O)CCl)o1` [PCM-0102399]: the BSA in data set [1] came to 0. In data set [2], the OTUB2 was 0. The molecule further registered an NUDT7 in data set [3] of 0.05. In data set [4], this molecule returned a PCAF of 0. The viability at 48 h, 10 µM turned out to be 56.5% in data set [5], 31.8% in data set [6] and 25.7% in data set [7].

For `CC(NC(=O)CCl)C12CC3CC(CC(C3)C1)C2` (stereo not drawn) [PCM-0102402], in data set [1], the BSA is 0. In data set [2], this molecule gave an OTUB2 of 0.24. This molecule also had an NUDT7 in data set [3] of 0.07. In data set [4], the PCAF was determined as 0. Besides, the viability at 48 h, 10 µM was determined as 73.3% in data set [5], 55.2% in data set [6] and 67.3% in data set [7].

Regarding `Cl.O=C(CCl)N1CCN(C2CCS(=O)(=O)C2)CC1` (stereo not drawn) [PCM-0102405], the BSA in data set [1] is on record as 0. The OTUB2 in data set [2] is given as 0. Besides, in data set [3], the NUDT7 is 0. Besides, the PCAF in data set [4] turned out to be 0. For the same molecule, the viability at 48 h, 10 µM in data set [5] was found to be 87.8%; in data set [6], 90.2%; in data set [7] it was 107%.

In turn, `O=C(CCl)Nc1ccc([N+](=O)[O-])cc1C(F)(F)F` [PCM-0102406] showed a BSA in data set [1] of 0. In data set [2], the OTUB2 amounted to 0. In addition, the NUDT7 in data set [3] is reported as 0. In addition, the PCAF in data set [4] is listed as 0. In addition, the viability at 48 h, 10 µM turned out to be 83.1% in data set [5], 71.9% in data set [6] and 81.5% in data set [7].

Source of the values: publication PMC6556873, “Rapid Covalent-Probe Discovery by Electrophile-Fragment Screening” (Journal of the American Chemical Society, 2019).
